Results published in patent EP4567031A1, “HPK1 INHIBITOR, PREPARATION METHOD THEREFOR, AND USE THEREOF” (Beijing Earthwise Technology Co., Ltd., priority 2022, dated 2024).

How the values were obtained:
HPK1 [1] = biological target: T1, HPK1 (Homo sapiens, UniProt Q92918); test: HPK1 ADP-Glo kinase assay; format: biochemical; conditions: 40 µM ATP; 5 nM HPK1; MBP protein substrate
Description: 1×kinase buffer (40 mM Tris-HCl (pH 7.5), 20 mM MgCl2, 0.1 mg/ml BSA, 0.05 mM DTT), 2 µM MBP protein and 40 µM ATP, […] were included in the reaction mixture. The reaction was initiated by adding 5 nM HPK1. After 60 minutes of reaction, the assay was terminated by adding 5 µL of ADP-Glo™ reagent. After 60 minutes, 10 µL of kinase assay reagent was added. After being incubated at room temperature for 60 minutes, the assay plate was read by EnVision multi-function microplate reader.
(§1) The luminescent signal value was converted to the percentage of inhibition. Inhibition % = (maximum value - sample value) / (maximum value - minimum value)×100. The minimum value refers to the value measured in a well without enzyme but with DMSO and substrate, and the maximum value refers to the value measured in a well with DMSO, enzyme and substrate. IC50 values were calculated by XLFit (version 5.3.1.3) in Excel. Equation: Y = bottom + (top - bottom) / (1 + (IC50/X) ^ HillSlope).

Phospho-SLP-76 (Ser376) = Phospho-SLP-76 (Ser376) HTRF assay in Jurkat E6-1 cells; format: cell-based; conditions: Homo sapiens, compound 4 hours, then anti-CD3 antibody 20 minutes, read-out: pSLP76, IC50
Description: A compound was dissolved in DMSO to 10 mM, and then diluted three-fold with DMSO to 10 dosages in a 96-well plate. Then, 3 µL of the diluted compound sample was transferred to a 96-well plate with 97 µL of cell culture medium, and the plate was shaken for 5 minutes. According to the experimental design diagram, 7.5 µL of the diluted compound sample was transferred to a cell plate. Final concentrations of the compound in this assay were 10000.00, 3333.33, 1111.11, 370.37, 123.46, 41.15, 13.72, 4.57, 1.52 and 0.51 nM.
In this assay, the density of Jurkat E6-1 cells was maintained between 3*10^5 to 3*10^6 cells/mL. The cell culture was replaced with fresh culture medium every 2 to 3 days (depending on the cell density).
30 µL of Jurkat E6-1 (300,000 cells) was added to a 96-well plate and incubated in a 37 °C incubator for 1 hour. Then, according to the experimental design diagram, compounds (6×, 7.5 µL) were added to treat the cells for 4 hours, respectively. After 4 hours, purified anti-human anti-CD3 antibodies (6×, 7.5 µL) were added to treat the cells for 20 minutes. After 20 minutes, 15 µL of cell lysis buffer (4×) was added, and the cells were lysed at 25 °C with shaking (250 rpm) for 1 hour. Then, according to the experimental design diagram, 16 µL of cell lysate was transferred to a 384-well plate using a pipette. After the transfer, 4 µL of antibody detection mixture was added. After being placed at room temperature overnight, the plate was read by EnVision multi-function microplate reader to read the FRET signal (the ratio of HTRF 665/615 was calculated from the readings at 665 nm and 615 nm).
The ratio of the signal at 665 nm to the signal at 615 nm was converted to the percentage of inhibition. Inhibition % = (maximum value - sample value) / (maximum value - minimum value)×100. The minimum value refers to the signal value of a well without anti-CD3 antibody stimulation during the treatment of cells, and the maximum value refers to the signal value of a well with anti-CD3 antibody stimulation but without the compound during the treatment of cells. IC50 values were calculated by XLFit (version 5.3.1.3) in excel. Equation: Y = Bottom + (Top-Bottom) / (1 + (IC50/X) ^ HillSlope). Table 4. Results of cellular activity of the compounds

human Pan T cells = test: Human Pan T cell IL-2 ELISA; format: cell-based; conditions: Homo sapiens, T-cell, 48 h, Anti-CD3 and Anti-CD28, supernatant IL-2 ELISA, read-out: IL-2 release, EC50
How it was run: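 Human Pan T cells (1×10^6 cells/ml) stimulated with plate-bound anti-CD3 plus anti-CD28 and treated 48 h with compound at 9 final concentrations, 39.063–10000 nM. Supernatant IL-2 by ELISA, expressed as fold over DMSO wells; EC50 from four-parameter logistic fit.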

HPK1 [2] = biological target: T1, HPK1; test: HPK1 HTRF kinase assay; format: biochemical; conditions: 1000 µM ATP; 50 nM HPK1; STK1 substrate; read-out: HPK1, IC50
Description: The reaction was initiated by adding 50 nM HPK1. After 120 minutes of reaction, the assay was terminated by adding 10 µL of Detection Mix.
as §1, with “The ratio of the” for “The luminescent”, “signal at 665 nm to the signal at 615 nm” for “signal value”, “= Bottom” for “= bottom”, “+ (Top” for “+ (top”, “- Bottom)” for “- bottom)”

T1 sequence (Q92918 whole entry, species assumed): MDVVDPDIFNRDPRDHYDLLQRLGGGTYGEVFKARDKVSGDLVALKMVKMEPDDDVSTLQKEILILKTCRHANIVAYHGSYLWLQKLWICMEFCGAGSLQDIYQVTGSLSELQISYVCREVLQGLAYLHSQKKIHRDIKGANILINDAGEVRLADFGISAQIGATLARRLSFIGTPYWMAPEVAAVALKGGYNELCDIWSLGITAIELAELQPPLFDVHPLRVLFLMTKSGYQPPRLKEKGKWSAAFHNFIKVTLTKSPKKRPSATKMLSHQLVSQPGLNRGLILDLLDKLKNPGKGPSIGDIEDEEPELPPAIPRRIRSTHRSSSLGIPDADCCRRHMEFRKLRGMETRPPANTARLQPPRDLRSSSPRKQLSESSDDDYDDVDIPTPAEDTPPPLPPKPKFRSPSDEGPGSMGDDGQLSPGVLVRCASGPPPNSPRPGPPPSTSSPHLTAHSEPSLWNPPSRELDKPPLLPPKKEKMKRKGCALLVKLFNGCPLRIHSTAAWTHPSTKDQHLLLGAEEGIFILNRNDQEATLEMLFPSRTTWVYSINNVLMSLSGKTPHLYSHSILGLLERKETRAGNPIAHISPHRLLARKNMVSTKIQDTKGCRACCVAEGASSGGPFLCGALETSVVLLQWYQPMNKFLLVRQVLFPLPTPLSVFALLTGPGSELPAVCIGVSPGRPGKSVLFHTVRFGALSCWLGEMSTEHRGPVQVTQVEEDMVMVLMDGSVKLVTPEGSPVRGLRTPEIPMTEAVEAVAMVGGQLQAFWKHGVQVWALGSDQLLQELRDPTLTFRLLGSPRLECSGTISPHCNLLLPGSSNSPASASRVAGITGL

Row | IC50 (HPK1 [1]) [nM] | IC50 (Phospho-SLP-76 (Ser376)) [nM] | EC50 (human Pan T cells) [nM] | IC50 (HPK1 [2]) [nM] | Structure (SMILES)
1 | 1.7 | 64 | – | – | COc1cccn2c(-c3cc4c(c5c(=O)[nH]ccc35)Nc3ccc(N5CCOC(C(C)(C)O)C5)cc3C4(C)C)cnc12 (stereo not drawn) [Example 2]
2 | 0.3 | 57.5 | 38 | – | COc1cccn2c(-c3cc4c(c5c(=O)[nH]ccc35)Nc3ccc(N5CCOCC5)cc3C4(C)C)cnc12 [Example 3]
3 | – | 38.1 | 4.61 | – | CC1(C)c2cc(N3CCOCC3)ccc2Nc2c1cc(-c1cnn3cccnc13)c1cc[nH]c(=O)c21 [Example 4]
4 | 3.44 | – | 10.8 | – | Cc1ccn2c(-c3cc4c(c5c(=O)[nH]ccc35)Nc3ccc(N5CCOCC5)cc3C4(C)C)cnc2c1F [Example 5]
5 | – | 164 | 13 | – | Cc1ccn2c(-c3cc4c(c5c(=O)[nH]ccc35)Nc3ccc(N5CCOC(C(C)(C)O)C5)cc3C4(C)C)cnc2c1F (stereo not drawn) [Example 6]
6 | – | 103 | 5.5 | – | COc1cccc2c(-c3cc4c(c5c(=O)[nH]ccc35)Nc3ccc(N5CCOCC5)cc3C4(C)C)cnn12 [Example 8]
7 | – | 73.3 | 13.8 | 7.38 | Cc1ccn2c(-c3cc4c(c5c3CNC5=O)Nc3ccc(N5CCOCC5)cc3C4(C)C)cnc2c1F [Example 11]
8 | – | 25.9 | 6.67 | 6.99 | CC1(C)c2cc(N3CCOCC3)ccc2Nc2c1cc(-c1cnc3cccnn13)c1c2C(=O)NC1 [Example 12]
9 | – | 197 | 49.1 | 30.3 | COc1cccn2c(-c3cc4c(c5c3CNC5=O)Nc3cnc(N5CCOCC5)cc3C4(C)C)cnc12 [Example 14]
10 | – | 72.2 | 3.95 | – | COc1cccc2c(-c3nc4c(c5c3CCNC5=O)Nc3ccc(N5CCOCC5)cc3C4(C)C)cnn12 [Example 15]
11 | – | 31.6 | 6.81 | 2.85 | CC1(C)c2cc(N3CCOCC3)ccc2Nc2c1cc(-c1cnn3cccnc13)c1c2C(=O)NC1 [Example 16]
12 | – | 56.9 | 3.72 | 6.31 | CC1(C)c2cc(N3CCOCC3)ccc2Nc2c1cc(-c1cnn3c(C#N)cccc13)c1c2C(=O)NC1 [Example 17]
13 | – | 66 | 11.8 | 11.7 | COc1cccc2c(-c3cc4c(c5c3CNC5=O)Nc3ccc(N5CCOCC5)cc3C4(C)C)cnn12 [Example 18]
14 | – | 83.6 | 11.3 | 5.76 | COc1cccn2c(-c3cc4c(c5c3CNC5=O)Nc3ccc(N5CCOCC5)nc3C4(C)C)cnc12 [Example 20]
15 | – | 37 | 8.32 | – | COc1cccc2c(-c3cc4c(c5c3CNC5=O)Nc3ncc(N5CCOCC5)cc3C4(C)C)cnn12 [Example 21]
16 | – | 58.8 | 3.7 | 24.8 | COc1ccnn2c(-c3cc4c(c5c3CNC5=O)Nc3ccc(N5CCOCC5)cc3C4(C)C)cnc12 [Example 31]
17 | – | 13.5 | 6.09 | – | Cn1ccn2c(-c3cc4c(c5c3CNC5=O)Nc3ccc(N5CCOCC5)cc3C4(C)C)cnc2c1=O [Example 41]

Row | Structure (SMILES) | IC50 (HPK1 [1]) [nM] | IC50 (Phospho-SLP-76 (Ser376)) [nM] | EC50 (human Pan T cells) [nM] | IC50 (HPK1 [2]) [nM]
18 | CC1(C)c2cc(N3CCOCC3)ccc2Nc2c1cc(-c1cnc3c(Cl)cccn13)c1cc[nH]c(=O)c21 [Example 1] | 0.1 | 121 | – | –
19 | Cc1ccn2c(-c3cc4c(c5c3CNC5=O)Nc3ccc(N5CCOC(C(C)(C)O)C5)cc3C4(C)C)cnc2c1F (stereo not drawn) [Example 9] | – | 57.8 | 3.09 | 20.4
20 | COc1cccn2c(-c3cc4c(c5c3CNC5=O)Nc3ccc(N5CCOCC5)cc3C4(C)C)cnc12 [Example 10] | – | 42.7 | – | 8.39
21 | COc1cccn2c(-c3cc4c(c5c3CCNC5=O)Nc3ccc(N5CCOCC5)cc3C4(C)C)cnc12 [Example 13] | – | 24.4 | – | –
